Source: patent publication US7235674B2, “Substituted coumarins and quinolines and analogs as activators of caspases and inducers of apoptosis and the use thereof” (Cytovia, Inc., priority 2001, dated 2007)

Key:
[1] = test system: Human breast cancer cell line T-47D; assay: Caspase cascade activation assay (N-(Ac-DEVD)-N'-ethoxycarbonyl-R110 fluorogenic substrate) in T-47D cells; format: cell-based; conditions: for EC50: Homo sapiens, T47D; for EC50 / EC50 (nM) T-47D: caspase cascade activation potency; for EC50 / Caspase activity (Ratio) T-47D / EC50 (nM) T-47D: T-47D cells, 24 h incubation; for Caspase activity (Ratio) T-47D: ratio of net RFU of test compound to control, 3 h substrate reading
Method: (§1) Human breast cancer cell lines T-47D and ZR-75-1 were grown according to media component mixtures designated by American Type Culture Collection +10% FCS (Invitrogen Corporation), in a 5% CO2 −95% humidity incubator at 37° C. T-47D and ZR-75-1 cells were maintained at a cell density between 30 and 80% confluency at a cell density of 0.1 to 0.6×10^6 cells/mL. Cells were harvested at 600×g and resuspended at 0.65×10^6 cells/mL into appropriate media +10% FCS. An aliquot of 45 μl of cells was added to a well of a 96-well microtiter plate containing 5 μl of a 10% DMSO in RPMI-1640 media solution containing 0.16 to 10 μM of 3-cyano-7-methoxy-4-(3-bromo-4,5-dimethoxyphenyl)-2-oxo-2H-chromene (Example 1) or other test compound (0.016 to 1 μM final). An aliquot of 45 μl of cells was added to a well of a 96-well microtiter plate containing 5 μl of a 10% DMSO in RPMI-1640 media solution without test compound as the control sample. The samples were mixed by agitation and then incubated at 37° C. for 24 h in a 5% CO2 −95% humidity incubator. After incubation, the samples were removed from the incubator and 50 μl of a solution containing 20 μM of N-(Ac-DEVD)-N′-ethoxycarbonyl-R110 fluorogenic substrate (SEQ ID NO:1) (Cytovia, Inc.; WO99/18856), 20% sucrose (Sigma), 20 mM DTT (Sigma), 200 mM NaCl (Sigma), 40 mM Na PIPES buffer pH 7.2 (Sigma), and 500 μg/ml lysolecithin (Calbiochem) was added. The samples were mixed by agitation and incubated at room temperature. Using a fluorescent plate reader (Model 1420 Wallac Instruments), an initial reading (T=0) was made approximately 1-2 min after addition of the substrate solution, employing excitation at 485 nm and emission at 530 nm, to determine the background fluorescence of the control sample. After the 3 h incubation, the samples were read for fluorescence as above (T=3 h).
(§2) The Relative Fluorescence Unit values (RFU) were used to calculate the sample readings as follows: RFU(T=3 h)−Control RFU(T=0)=Net RFU(T=3 h)
(§3) The activity of caspase cascade activation was determined by the ratio of the net RFU value for 3-cyano-7-methoxy-4-(3-bromo-4,5-dimethoxy-phenyl)-2-oxo-2H-chromene, or other test compound, to that of control samples. The EC50 (nM) was determined by a sigmoidal dose-response calculation (Prism 2.0, GraphPad Software Inc.).

[2] = test system: Human breast cancer cell line ZR-75-1; assay: Caspase cascade activation assay (N-(Ac-DEVD)-N'-ethoxycarbonyl-R110 fluorogenic substrate) in ZR-75-1 cells; format: cell-based; conditions: for Caspase activity (Ratio) ZR-75-1: ratio of net RFU of test compound to control, 3 h substrate reading
Method: as §1, §2, §3

[3] = Homo sapiens, caspase cascade activation potency, ZR-75-1 cells, 24 h incubation
[4] = caspase cascade activation potency, ZR-75-1 cells, 24 h incubation
[5] = commercial fused-pyridine compounds, T47D cells

Compound	EC50 [1]	EC50 [2, 3]	EC50 (nM) T-47D [1]	EC50 (nM) ZR-75-1 [2, 4]	EC50 (nM) T47D [1, 5]	EC50 ([2]; Homo sapiens, ZR-75-1, commercial fused-pyridine compounds, ZR751 cells)	Caspase activity (Ratio) T-47D [1]	Caspase activity (Ratio) ZR-75-1 ([2]; ZR-75-1 cells, 24 h incubation)	Max efficacy T47D [1, 5]	maximal fold induction ([2]; Homo sapiens, ZR-75-1, 24 h, commercial fused-pyridine compounds, ZR751 cells, read-out: Max efficacy ZR751)
COc1cc(-c2c(C#N)c(=O)oc3cc(N(C)C)ccc23)cc(Br)c1OC [Example 21, 3-Cyano-7-dimethylamino-4-(3-bromo-4,5-dimethoxyphenyl)-2-oxo-2H-chromene]	546 nM	279 nM	–	–	–	–	5.8	9.1	–	–
C=CCNc1nc2nc(N)c(C#N)c(-c3ccc(Br)cc3)c2s1 [compound 48]	–	–	–	–	Inactive	6040 nM	–	–	Inactive	2.9
CNc1ccc2c(-c3cc(Br)c(OC)c(OC)c3)c(C#N)c(=O)oc2c1 [Example 25, 4-(3-Bromo-4,5-dimethoxy-phenyl)-3-cyano-7-methylamino-2-oxo-2H-chromene]	1090 nM	356 nM	–	–	–	–	4.9	6.1	–	–
COc1cc(-c2cc3c(c4c2=C(C#N)C(=O)O4)OC(C)(C)CC=3)cc(Br)c1OC [Example 20, 4-(3-Bromo-4,5-dimethoxyphenyl)-3-cyano-7,8-dihydro-8,8-dimethyl-2-oxo-2H-furo[3,2-h]chromene]	–	1000 nM	Inactive	–	–	–	1.6	3.1	–	–
N#Cc1c(-c2ccccc2)c2ccccc2oc1=O [Example 4, 3-Cyano-4-phenyl-2-oxo-2H-chromene]	–	–	Inactive	Inactive	–	–	Inactive	Inactive	–	–
COc1cc(-c2c(C#N)c(=O)oc3cc(N)ccc23)cc(Br)c1OC [Example 18, 7-Amino-4-(3-bromo-4,5-dimethoxyphenyl)-3-cyano-2-oxo-2H-chromene]	1490 nM	320 nM	–	–	–	–	2.2	7.1	–	–

More lines, main results first:

EC50 [1]	EC50 [2, 3]	EC50 (nM) T-47D [1]	EC50 (nM) ZR-75-1 [2, 4]	EC50 (nM) T47D [1, 5]	EC50 ([2]; Homo sapiens, ZR-75-1, commercial fused-pyridine compounds, ZR751 cells)	Compound	Caspase activity (Ratio) T-47D [1]	Caspase activity (Ratio) ZR-75-1 ([2]; ZR-75-1 cells, 24 h incubation)	Max efficacy T47D [1, 5]	maximal fold induction ([2]; Homo sapiens, ZR-75-1, 24 h, commercial fused-pyridine compounds, ZR751 cells, read-out: Max efficacy ZR751)
–	–	Inactive	Inactive	–	–	COc1cccc(-c2c(C#N)c(=N)sc3cc(OC)ccc23)c1 [Example 30, 2-Imino-3-cyano-7-methoxy-4-(3′-methoxy-phenyl)-2H-thiochromene]	Inactive	Inactive	–	–
44 nM	11 nM	–	–	–	–	COc1cc(OC)cc(-c2c(C#N)c(=O)oc3cc(OC)ccc23)c1 [Example 2, 3-Cyano-7-methoxy-4-(3,5-dimethoxyphenyl)-2-oxo-2H-chromene]	4.1	5.4	–	–
56 nM	17 nM	–	–	–	–	Cn1ccc2c3oc(=O)c(C#N)c(-c4cccc(Br)c4)c3ccc21 [Example 42, 3-Cyano-4-(3-bromo-phenyl)-7-methyl-2-oxo-2H-pyrrolo[2,3-h]chromene]	2.6	4.2	–	–
